Results on one sequence are retold here after patent US20100129289A1, “COMPOSITIONS AND METHODS FOR THE DETECTION OF VULNERABLE PLAQUE” (THE OHIO STATE UNIVERSITY RESEARCH FOUNDATION, priority 2006, published 2010).

For test [1], the system named is atherosclerotic lesion endothelium of ApoE knockout mice. The following applies: mouse; cited from earlier work.
Test [2] relates to human atherosclerotic lesions. The following applies: cited from earlier work.
Test [3] has as its system WHHL rabbit aortic tissue (intima). As to the kind of experiment: Resected WHHL rabbit aortic tissue peptide binding assay. The following applies: Exp217 (FIG. 19); five to seven tissue samples per peptide. The method, then:
Experiments were performed to determine if the synthesized peptides could bind to the intima of the WHHL (diseased) rabbits but not to the NZW (control) rabbits. The following procedure is shown schematically in FIG. 2. The animals were anesthetized, injected with 0.7-1.0 mL heparin, and perfused with 200-300 mL Hanks buffered salt solution containing 1% BSA. A segment of the aorta comprising the aortic arch to the bifurcation of the aorta in the lower abdomen was removed and placed in a buffer solution of Hanks w/1% BSA and 1% protease inhibitor cocktail (Sigma, P8340). The aorta segments were opened longitudinally and sliced into individual pieces approximately 1-2 mm^2 each. These pieces were then placed into tubes containing individual peptides at a concentration of 5 μg/mL in the same buffer solution described above.
The tissue sections were incubated with individual peptides for 45-60 minutes at room temperature. Samples were washed 3× with PBS followed by incubation with SA-HRP or anti-FLAG-HRP in the same buffer for 45-60 minutes at room temperature. After another 3× washing, the samples were incubated with DAB for 30 minutes in the same buffer. After a final round of washing, tissue samples were imaged with a dissecting microscope and analyzed for the presence of brown staining on the endothelial surface. […] Some tissue sections received no peptide incubation; rather they were exposed only to SA-HRP or anti-FLAG-HRP as a control.

Ends that are not written are not given here.

Turning to “CAPGPSKSC (cysteine pairing not given here; also: N-terminal biotin or C-terminal FLAG, which one not given here) [Peptide 12]”, the “binding to atherosclerotic lesion endothelium of ApoE knockout mice in vivo” value in test [1] is reported as “bound”. The “binding to human atherosclerotic lesions ex vivo” value in test [2] is reported as “bound”. In addition, the “positive binding / staining on WHHL tissue samples” value in test [3] is listed as “stained”.
